Measurements: article PMC7557582, “Broad-Spectrum Antimicrobial Activity and Improved Stability of a D-Amino Acid Enantiomer of DMPC-10A, the Designed Derivative of Dermaseptin Truncates” (Antibiotics, 2020)
In brackets after ≈: the same amount, converted by molar mass. Blank lines part the entries; values can stand above or below the compound they belong to. Non-standard residues stand in square brackets, D forms with d. Residues, ends and D or L forms follow the SMILES beside them. Cha = N[C@@H](CC1CCCCC1)C(=O)O

Assays:
E. coli (NCTC 10418) [1] = type: cell-based, Escherichia coli
Method: (§6) Gram-positive bacteria Staphylococcus aureus (NCTC 10788) and Enterococcus faecalis (NCTC 12697) and Gram-negative bacteria Escherichia coli (NCTC 10418), Pseudomonas aeruginosa (ATCC 27853), and Klebsiella pneumoniae (ATCC 43816) were tested. […] All the bacterial strains were inoculated in Mueller Hinton broth (MHB), pH 7.4 (Oxiod, Basingstoke, UK) at 37 °C. Then, the log-phase bacteria were mixed with the peptide at the concentrations from 512 to 1 µM in two-fold dilution, in a 96 well-plate. The wells contained sterilized MHB and bacteria cultures were employed as a blank and growth control, respectively.

[2] = test system: K. pneumoniae (ATCC BAA 2342); type: cell-based, Klebsiella pneumoniae
Method: as §6

[3] = test system: MRSA (NCTC 12493) biofilm; assay: Eradication of mature biofilm (crystal violet); type: cell-based, methicillin-resistant S. aureus; settings: high concentrations ranging from 32 to 128 µM, 24 h treatment at 37 °C
Method: (§1) The antibiofilm activity of synthetic peptides was evaluated via the inhibitory effect against the formation of biofilm and the eradication of mature biofilm, which were performed as the previously study with minor modifications. […] Then, the solution in each well was discarded. The biofilm was washed with PBS. Finally, the biofilm in each well was stained by 100 μL of 0.1% crystal violet solution and further dissolved by 30% acetic acid. The absorbance of dissolved crystal violet in each well was recorded at 595 nm. For the eradication of mature biofilm, biofilm was formed with incubation at 37 °C for 24–48 h. Then, the plate was washed with PBS and filled with the peptides which were prepared in the fresh medium. After treatment for 24 h at 37 °C, the plate was stained as mentioned above. Both assays were repeated three times, with 5 replicates each time.

[4] = test system: MRSA (NCTC 12493) biofilm; assay: Inhibition of biofilm formation (crystal violet); type: cell-based, methicillin-resistant S. aureus; settings: 37 °C 24–48 h, crystal violet 595 nm
Method: as §1

[5] = test system: Galleria mellonella larvae infected with K. pneumoniae (ATCC 43816); assay: Galleria mellonella larva infection model; type: in vivo; settings: 20 mg/kg injected 1 h after infection, 5 days, 10 larvae per group
Method: The assessment of in vivo antimicrobial activity of DMPC-10B was performed using the larva of Galleria mellonella, as in the previous study, with minor modifications. The infection model was constructed by injecting 10 μL of MRSA (NCTC 12493) and K. pneumoniae (ATCC 43816) bacteria suspension (5 × 10^7 CFU/mL) which was prepared in PBS. After 1 h, each infected larva was further administered an injection of 10 μL of peptide solution at different doses of 5, 10, 20 mg/kg. The infected larva that was administered 10 μL of PBS was employed as a negative control, while 20 mg/kg of gentamicin was used as a positive control. Each group contained 10 larvae and all larvae were inspected every 24 h for 5 days (the first day was 12 h).

[6] = test system: S. aureus (NCTC 10788) biofilm; assay: Eradication of mature biofilm (crystal violet); type: cell-based, Staphylococcus aureus; settings: high concentrations ranging from 32 to 128 µM, 24 h treatment at 37 °C
Method: as §1

trypsin = molecular target: T1, trypsin (Bos taurus, UniProt P00760); assay: Enzyme stability assay, trypsin; type: in vitro ADME; settings: peptide in PBS, peptide:trypsin 100:1 (m/m), time points 0-120 min, stopped with 10% TFA, RP-HPLC peak area, three replicates
T1 construct: gene PRSS1
T1 sequence (P00760 24-246): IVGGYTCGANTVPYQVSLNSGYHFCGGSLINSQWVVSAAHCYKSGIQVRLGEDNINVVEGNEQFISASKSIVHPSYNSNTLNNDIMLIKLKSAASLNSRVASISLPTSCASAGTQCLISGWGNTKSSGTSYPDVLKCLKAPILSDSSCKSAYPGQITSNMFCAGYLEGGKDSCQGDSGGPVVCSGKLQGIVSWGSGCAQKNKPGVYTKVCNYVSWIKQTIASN
Method: (§2) The peptides were dissolved in phosphate-buffered saline (PBS) and mixed with the respective enzyme (trypsin and chymotrypsin) with a ratio of 100:1 (m/m). Then, 135 µl of the reaction solution was transferred into a new vial. The hydrolysis reaction was immediately terminated by adding 15 µl of 10% TFA at the different time points (0, 5, 10, 20, 40, 60, 120 min). The mixture was then analyzed by reverse-phase HPLC and respective peak areas were calculated to obtain the residual amount of peptides at different times.

[7] = test system: K. pneumoniae (ATCC 43816); type: cell-based, Klebsiella pneumoniae
Method: as §6

S. aureus (NCTC 10788) [8] = type: cell-based, Staphylococcus aureus
Method: as §6

[9] = test system: S. aureus (NCTC 10788) biofilm; assay: Inhibition of biofilm formation (crystal violet); type: cell-based, Staphylococcus aureus; settings: 37 °C 24–48 h, crystal violet 595 nm
Method: as §1

[10] = test system: K. pneumoniae (ATCC BAA 1705); type: cell-based, Klebsiella pneumoniae
Method: as §6

chymotrypsin = chymotrypsin (Bos taurus, UniProt P00766); assay: Enzyme stability assay, chymotrypsin; type: in vitro ADME; settings: peptide in PBS, peptide:chymotrypsin 100:1 (m/m)
Method: as §2

[11] = test system: P. aeruginosa (ATCC 27853); type: cell-based, Pseudomonas aeruginosa
Method: as §6

MRSA (NCTC 12493) = type: cell-based, methicillin-resistant S. aureus
Method: as §6

[12] = test system: healthy Galleria mellonella larvae; assay: Toxicity to larvae without infection; type: in vivo; settings: highest dose (20 mg/kg), 5 days
E. coli (NCTC 10418) [13] = type: cell-based, Escherichia coli; remark: listed apart in the source
Method: (§3) Furthermore, the antimicrobial activity in the presence of MgCl2, CaCl2, NaCl and 10% fetal bovine serum (FBS) was investigated. In detail, 2 and 5 mM of MgCl2 and CaCl2, and 150 and 375 mM NaCl, were applied, respectively. The supplements were added into the medium that was used for diluting the bacteria suspension. Then, the diluted bacteria culture was mixed with the peptide stock solution in the 96-well plate, as mentioned above. The assay was performed three times and each assay contained 5 replicates.

[14] = test system: K. pneumoniae (ATCC 43816) biofilm; assay: Inhibition of biofilm formation (crystal violet); type: cell-based, Klebsiella pneumoniae; settings: 37 °C 24–48 h, crystal violet 595 nm
Method: as §1

E. faecalis (NCTC 12697) = type: cell-based, Enterococcus faecalis
Method: as §6

S. aureus (NCTC 10788) [15] = type: cell-based, Staphylococcus aureus; remark: listed apart in the source
Method: as §3

[16] = test system: K. pneumoniae (ATCC BAA 1705); assay: Checkerboard synergy assay; type: cell-based, Klebsiella pneumoniae
Method: (§4) The bacteria culture was prepared and diluted as performed in Section 4.4. Then, the bacteria dilution was mixed with a different combination of DMPC-10B and the antibiotics in the 96-well plate. The wells only contained individual peptides or antibiotics were applied as reference controls. Similarly, the turbidity of each well in the plate was measured at OD 550 nm, after incubation at 37 °C for 24 h. The fractional inhibitory concentration index (FICI) of each combination was defined as follows: FICI=MIC of DMPC-10B in combination/MIC of DMPC-10B alone+MIC of antibiotic in combination/MIC of antibiotic alone
(§5) The profile of the combination was interpreted as synergistic, additive, and antagonistic for FICI ≤ 0.5, 0.5 < FICI ≤ 4.0, and FICI > 4.0, respectively.

[17] = test system: K. pneumoniae (ATCC BAA 2342); assay: Checkerboard synergy assay; type: cell-based, Klebsiella pneumoniae
Method: as §4, §5

[18] = test system: K. pneumoniae (ATCC 43816) biofilm; assay: Eradication of mature biofilm (crystal violet); type: cell-based, Klebsiella pneumoniae; settings: at 64 µM and 128 µM, compared with S. aureus and MRSA
Method: as §1

Structure (SMILES): CC(C)C[C@@H](NC(=O)[C@H](C)N)C(=O)N[C@@H](Cc1c[nH]c2ccccc12)C(=O)N[C@H](CCCCN)C(=O)N[C@H](CCCCN)C(=O)N[C@H](CC(C)C)C(=O)N[C@H](CC(C)C)C(=O)N[C@H](CCCCN)C(=O)N[C@H](CCCCN)C(=O)N[C@@H](CC1CCCCC1)C(N)=O [DMPC-10B] (H-A[dL]W[dK][dK][dL][dL][dK][dK][Cha]-NH2; N-terminus assumed)
MBC (E. coli (NCTC 10418) [1]; NCTC 10418, pH 7.4): 4 µM (≈ 5.12 µg/mL)
MIC (E. coli (NCTC 10418) [1]; NCTC 10418, pH 7.4): 2 µM (≈ 2.56 µg/mL)
MBC ([2]; ATCC BAA 2342, pH 7.4): 16 µM (≈ 20.5 µg/mL)
MIC ([2]; ATCC BAA 2342, pH 7.4): 16 µM (≈ 20.5 µg/mL)
biofilm eradication effect [3]: around 50%
inhibition of biofilm formation [4]: effectively inhibited
survival of infected larvae [5]: around 70%
biofilm eradication effect [6]: around 50%
time within which trypsin could not degrade the peptide completely (trypsin): > 2 h
MBC ([7]; ATCC 43816, pH 7.4): 8 µM (≈ 10.2 µg/mL)
MIC ([7]; ATCC 43816, pH 7.4): 8 µM (≈ 10.2 µg/mL)
MBC (S. aureus (NCTC 10788) [8]; NCTC 10788, pH 7.4): 16 µM (≈ 20.5 µg/mL)
MIC (S. aureus (NCTC 10788) [8]; NCTC 10788, pH 7.4): 4 µM (≈ 5.12 µg/mL)
inhibition of biofilm formation [9]: effectively inhibited
MBC ([10]; ATCC BAA 1705, pH 7.4): 32 µM (≈ 41 µg/mL)
MIC ([10]; ATCC BAA 1705, pH 7.4): 32 µM (≈ 41 µg/mL)
stability to hydrolysis by chymotrypsin (chymotrypsin; 120 min, RP-HPLC peak area, three replicates): exhibited resistance to the hydrolysis
time within which L-Trp site was not cleaved by chymotrypsin (chymotrypsin; RP-HPLC): > 2 h
MBC ([11]; ATCC 27853, pH 7.4): 32 µM (≈ 41 µg/mL)
MIC ([11]; ATCC 27853, pH 7.4): 4 µM (≈ 5.12 µg/mL)
MBC (MRSA (NCTC 12493); NCTC 12493, pH 7.4): 8 µM (≈ 10.2 µg/mL)
MIC (MRSA (NCTC 12493); NCTC 12493, pH 7.4): 4 µM (≈ 5.12 µg/mL)
death of healthy larvae [12]: did not induce any death
MIC with CaCl2 5 mM (E. coli (NCTC 10418) [13]): 32 µM
MIC with FBS 10% (E. coli (NCTC 10418) [13]): 4 µM
MIC with MgCl2 5 mM (E. coli (NCTC 10418) [13]): 32 µM
MIC with NaCl 150 mM (E. coli (NCTC 10418) [13]): 16 µM
MIC with NaCl 375 mM (E. coli (NCTC 10418) [13]): 32 µM
MIC, no additive (E. coli (NCTC 10418) [13]): 2 µM (≈ 2.56 µg/mL)
inhibition of biofilm formation [14]: less potent
MBC (E. faecalis (NCTC 12697); NCTC 12697, pH 7.4): 64 µM (≈ 81.9 µg/mL)
MIC (E. faecalis (NCTC 12697); NCTC 12697, pH 7.4): 64 µM (≈ 81.9 µg/mL)
MIC with CaCl2 5 mM (S. aureus (NCTC 10788) [15]): 64 µM
MIC with FBS 10% (S. aureus (NCTC 10788) [15]): 8 µM
MIC with MgCl2 5 mM (S. aureus (NCTC 10788) [15]): 64 µM
MIC with NaCl 150 mM (S. aureus (NCTC 10788) [15]): 64 µM
MIC with NaCl 375 mM (S. aureus (NCTC 10788) [15]): 128 µM
MIC, no additive (S. aureus (NCTC 10788) [15]): 4 µM (≈ 5.12 µg/mL)
combined MIC of DMPC-10B with norfloxacin ([16]; first value): 32/32
individual MIC of DMPC-10B (norfloxacin checkerboard) ([16]; second value): 32/32
combined MIC of DMPC-10B with norfloxacin ([17]; first value): 16/16
individual MIC of DMPC-10B (norfloxacin checkerboard) ([17]; second value): 16/16
biofilm eradication effect [18]: more potent effects

MIC of antibiotic (E. coli (NCTC 10418) [1]; E. coli (NCTC 10418), broth-dilution, MHB pH 7.4, 37 °C, positive control): 1/2.09 µg/mL
MIC of antibiotic ([2]; K. pneumoniae (ATCC BAA 2342), broth-dilution, MHB pH 7.4, 37 °C, positive control): 4/8.38 µg/mL
MIC of antibiotic ([7]; K. pneumoniae (ATCC 43816), broth-dilution, MHB pH 7.4, 37 °C, positive control): 1/2.09 µg/mL
MIC of antibiotic (S. aureus (NCTC 10788) [8]; S. aureus (NCTC 10788), broth-dilution, MHB pH 7.4, 37 °C, positive control): <0.0625/<0.13 µg/mL
MIC of antibiotic ([10]; K. pneumoniae (ATCC BAA 1705), broth-dilution, MHB pH 7.4, 37 °C, positive control): 2/4.19 µg/mL
MIC of antibiotic ([11]; P. aeruginosa (ATCC 27853), broth-dilution, MHB pH 7.4, 37 °C, positive control): 0.25/0.52 µg/mL
MIC of antibiotic (MRSA (NCTC 12493); MRSA (NCTC 12493), broth-dilution, MHB pH 7.4, 37 °C, positive control): 0.125/0.26 µg/mL
MIC of antibiotic (E. faecalis (NCTC 12697); E. faecalis (NCTC 12697), broth-dilution, MHB pH 7.4, 37 °C, positive control): 4/8.38 µg/mL
Structure (SMILES): CNC(C)C1CCC(N)C(OC2C(N)CC(N)C(OC3OCC(C)(O)C(NC)C3O)C2O)O1 (stereo not drawn) [Gentamicin, reference compound]
